Results as given in patent US20240132513A1, “BENZAZEPINE DERIVATIVES, COMPOSITIONS, AND METHODS FOR TREATING COGNITIVE IMPAIRMENT” (AGENEBIO, INC., priority 2022, published 2024).
Where two headings read alike, the source gives them in different places.

Target: α5β3γ2 GABAA R (Homo sapiens, UniProt P18507+P31644)
Experiment: Binding activity on GABAA R: inhibition of [3H]Ro15-1788 binding, α5 containing receptor
Protocol: Tissue culture and Membrane Preparation: The binding was performed on Ltk cells stably expressing GABAA R: […], α2β3γ2, α3β3γ2 and α5β3γ2 (provided by Merck Co., NJ, USA). Cells were seeded in 100 mm culture plates in DMEM/F12 medium containing 10% serum and antibiotics in 5% CO2 and allowed to grow for 1-2 days. GABAAR expression was then induced by dexamethasone as follows: 0.5 μM for 1 day for α5 containing and 2 μM for 3 days for α1, α2 and α3 containing GABAARs. After induction, cells were collected by scraping into Dulbecco's Phosphate buffered saline (DPBS, pH 7.4, Invitrogen, Carlsbad, CA, USA) and centrifuged at 150×g for 10 min. The pellet was washed twice by re-suspension and centrifugation. The cell pellets from at least 5 different preps were combined, suspended in the binding assay buffer (50 mM KH2PO4; 1 mM EDTA; 0.2 M KCl, pH 7.4) and membranes prepared by sonication (3-5 times, 30 sec) using Branson Sonifier 150 (G. Heinmann, Germany). Protein content was determined using BCA assay (Bio-Rad Labs, Reinach, Switzerland) with Bovine Serum Albumin (Sigma Aldrich, St. Louis, MO, USA) as the standard. Aliquots were prepared and stored at −20° C. for further use in binding assays.
Ligand Binding: Saturation binding curves were obtained by incubating membranes with increasing concentrations (0.01-8 nM) of [^3H]Rol5-1788 (Flumazepil, 75-85 Ci/mmol, PerkinElmer, MA, USA), with nonspecific binding measured in the presence of 10 μM diazepam.
All binding assays were performed for 1 h at 4° C. in assay buffer. The total assay volume was 0.5 ml containing 0.2 mg/ml protein for α5 and 0.4 mg/ml for α1, α2, and α3 containing GABAAR membranes. Incubations were terminated by filtration through GF/B filters using a 24-Cell Harvestor (Brandel, Gaithersburg, MD, USA) followed by 3 washes with ice-cold assay buffer. Filters were transferred to scintillation vials, 5 ml scintillation liquid added, vortex-mixed and kept in dark. Next day, radioactivity was obtained using a scintillation counter (Beckman Coulter, Brea, CA, USA). All assays were performed in triplicate.
Data Analyses: Saturation and inhibition curves were obtained using GraphPad Prism software (GraphPad Software, Inc., CA, USA).

[1] = ranges of the column heads, [3H]Ro15-1788, Ltk cell membranes

α5β3γ2 GABAA R, sequence (P31644 32-462): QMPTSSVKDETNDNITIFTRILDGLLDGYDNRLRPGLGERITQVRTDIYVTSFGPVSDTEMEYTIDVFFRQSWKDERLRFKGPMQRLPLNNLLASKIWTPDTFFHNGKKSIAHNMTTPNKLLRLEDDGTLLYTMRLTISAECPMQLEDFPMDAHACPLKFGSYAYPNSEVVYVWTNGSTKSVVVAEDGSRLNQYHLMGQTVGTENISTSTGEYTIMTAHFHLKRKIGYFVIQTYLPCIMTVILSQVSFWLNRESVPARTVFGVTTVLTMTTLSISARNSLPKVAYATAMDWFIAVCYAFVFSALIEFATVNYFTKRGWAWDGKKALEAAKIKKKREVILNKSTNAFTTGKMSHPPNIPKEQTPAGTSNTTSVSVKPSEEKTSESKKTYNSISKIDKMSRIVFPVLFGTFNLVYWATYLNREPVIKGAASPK
α5β3γ2 GABAA R, sequence (P28472 26-473 partner): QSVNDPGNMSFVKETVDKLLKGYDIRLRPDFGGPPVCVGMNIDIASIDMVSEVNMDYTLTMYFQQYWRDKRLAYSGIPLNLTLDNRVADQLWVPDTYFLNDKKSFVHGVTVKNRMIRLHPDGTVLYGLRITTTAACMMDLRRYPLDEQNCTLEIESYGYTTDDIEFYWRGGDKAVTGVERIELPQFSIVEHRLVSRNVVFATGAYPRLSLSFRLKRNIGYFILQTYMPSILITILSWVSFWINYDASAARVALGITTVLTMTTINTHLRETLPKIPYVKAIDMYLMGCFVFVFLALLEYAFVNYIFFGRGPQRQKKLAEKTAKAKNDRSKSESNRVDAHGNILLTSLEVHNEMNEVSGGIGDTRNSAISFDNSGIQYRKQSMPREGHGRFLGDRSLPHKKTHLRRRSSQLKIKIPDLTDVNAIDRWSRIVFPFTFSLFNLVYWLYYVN
α5β3γ2 GABAA R, sequence (P18507 40-475): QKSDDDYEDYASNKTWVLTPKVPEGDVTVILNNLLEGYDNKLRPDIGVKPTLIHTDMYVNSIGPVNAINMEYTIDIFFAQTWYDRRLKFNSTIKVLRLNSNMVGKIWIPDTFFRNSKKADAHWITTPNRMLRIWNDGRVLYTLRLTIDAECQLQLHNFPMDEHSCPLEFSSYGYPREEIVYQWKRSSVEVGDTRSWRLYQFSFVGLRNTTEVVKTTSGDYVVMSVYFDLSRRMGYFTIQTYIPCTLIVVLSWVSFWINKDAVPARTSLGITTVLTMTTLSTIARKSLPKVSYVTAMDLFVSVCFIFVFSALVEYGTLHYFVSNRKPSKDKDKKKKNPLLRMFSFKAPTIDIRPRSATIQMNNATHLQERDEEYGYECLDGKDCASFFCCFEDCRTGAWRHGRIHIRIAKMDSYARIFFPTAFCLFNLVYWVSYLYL

| Compound | Ki [nM] | Ki [1] [nM] |
| --- | --- | --- |
| COc1ccc(Cn2ncc3c2-c2cc(OC)ccc2-n2cnc(C#Cc4ccc(OC)nc4)c2C3)cc1 [Compound 36] | 100 to 1000 | – |
| COc1ccc2c(c1)-c1nn(CCOC(C)(C)C)cc1Cc1c(-c3noc(C(C)(C)OC)n3)ncn1-2 [Compound 333] | < 100 | – |
| CCOC1(c2nc(-c3ncn4c3Cc3cn(C)nc3-c3cc(OC)ccc3-4)no2)CC1 [Compound 357] | < 100 | – |
| CCOC(=O)c1cnc2n1CC(=O)N(Cc1ccc(OC)cc1OC)c1cc(Cl)ccc1-2 [Compound 25] | – | > 1000 |
| COCc1nnc(-c2ncn3c2Cc2cn(C)nc2-c2cc(OC)ccc2-3)o1 [Compound 326] | < 100 | – |
| CCn1cc2c(n1)-c1cc(OC)ccc1-n1cnc(-c3nc(C(C)(C)OC)no3)c1C2 [Compound 234] | < 100 | – |
| CC(=O)N(C)Cc1noc(-c2ncn3c2Cc2cn(C)nc2-c2cc(Cl)ccc2-3)n1 [Compound 386] | – | < 100 |
| COc1ccc2c(c1)-c1nn(C)cc1Cc1c(-c3noc(C4(OC(C)C)CC4)n3)ncn1-2 [Compound 370] | < 100 | – |
| Cc1noc(-c2ncn3c2Cc2cnoc2-c2cc(Cl)ccc2-3)n1 [Compound 69] | – | > 1000 |
| COCc1noc(-c2ncn3c2Cc2cn(CC4COC4)nc2-c2cc(OC)ccc2-3)n1 [Compound 298] | – | < 100 |
| COc1ccc2c(c1)-c1c(cnn1C)Cc1c(-c3nc(C(C)(C)C)no3)ncn1-2 [Compound 19] | – | > 1000 |
| COc1ccc2c(c1)-c1nn(Cc3ccccc3F)cc1Cc1c(-c3cnn(-c4ccccc4)c3)ncn1-2 [Compound 75] | 100 to 1000 | – |
| Clc1ccc2c(c1)-c1nn(C3CCOC3)cc1Cc1c(-c3cnn(Cc4ccccc4)c3)ncn1-2 (stereo not shown) [Compound 274] | – | < 100 |
| COc1ccc2c(c1)-c1nn(C)cc1Cc1c(-c3nnc(C4CCOC4)o3)ncn1-2 (stereo not shown) [Compound 291] | 100 to 1000 | – |
| COc1ccc2c(c1)-c1nn(C)cc1Cc1c(-c3nc(COC4CCOC4)no3)ncn1-2 (stereo not shown) [Compound 316] | – | < 100 |
| CC(C)c1noc(-c2ncn3c2Cc2cnoc2-c2cc(Cl)ccc2-3)n1 [Compound 59] | – | > 1000 |
| CC1(c2nc(-c3ncn4c3Cc3cn(CC5CCCO5)nc3-c3cc(Cl)ccc3-4)no2)CCOCC1 (stereo not shown) [Compound 365] | < 100 | – |
| Clc1ccc2c(c1)-c1[nH]ncc1Cc1c(-c3cnoc3)ncn1-2 [Compound 61] | 100 to 1000 | – |
| COCC(COC)OCc1coc(-c2ncn3c2Cc2cn(C)nc2-c2cc(Cl)ccc2-3)n1 [Compound 332] | < 100 | – |
| Cc1noc(-c2ncn3c2Cc2cnn(Cc4ccccc4)c2-c2cc(Cl)ccc2-3)n1 [Compound 1] | < 100 | – |

| Compound | Ki [nM] | Ki [1] [nM] |
| --- | --- | --- |
| CC(C)c1noc(-c2ncn3c2Cc2cnn(C)c2-c2cc(Cl)ccc2-3)n1 [Compound 4] | 100 to 1000 | – |
| COc1ccc2c(c1)-c1oncc1Cc1c(C3=N[C@@H](c4ccc(C(F)(F)F)cc4)CO3)ncn1-2 [Compound 50] | – | > 1000 |
| CCn1cc2c(n1)-c1cc(OC)ccc1-n1cnc(-c3nc(C4CC4)no3)c1C2 [Compound 152] | < 100 | – |
| Clc1ccc2c(c1)-c1nn(CC3CCCO3)cc1Cc1c(-c3cnn(CC4CCOCC4)c3)ncn1-2 (stereo not shown) [Compound 319] | < 100 | – |
| CCn1cc2c(n1)-c1cc(OC)ccc1-n1cnc(-c3nc(CN(C)C)no3)c1C2 [Compound 241] | < 100 | – |
| CC(C)Cc1noc(-c2ncn3c2Cc2cnoc2-c2cc(Cl)ccc2-3)n1 [Compound 66] | – | > 1000 |
| C[C@@H]1COC(c2ncn3c2Cc2cnn(Cc4ccccc4)c2-c2cc(Cl)ccc2-3)=N1 [Compound 12] | – | 100 to 1000 |
| Cn1cc2c(n1)-c1cc(Cl)ccc1-n1cnc(-c3ncco3)c1C2 [Compound 166] | < 100 | – |
| COc1ccc2c(c1)-c1oncc1Cc1c(-c3nc(C(C)C)no3)ncn1-2 [Compound 41] | – | > 1000 |
| COc1ccc2c(c1)-c1[nH]ncc1Cc1c(-c3cnn(Cc4ccccc4)c3)ncn1-2 [Compound 72] | < 100 | – |
| Cc1noc(-c2ncn3c2Cc2cnn(C)c2-c2cc(Cl)ccc2-3)n1 [Compound 3] | < 100 | – |
| COc1ccc2c(c1)-c1[nH]ncc1Cc1c(-c3cn(C)cn3)ncn1-2 [Compound 80] | – | > 1000 |
| CC(=O)N(C)Cc1coc(-c2ncn3c2Cc2cn(C)nc2-c2cc(Cl)ccc2-3)n1 [Compound 358] | < 100 | – |
| COCCn1cc2c(n1)-c1cc(OC)ccc1-n1cnc(-c3noc(C4(OC)CC4)n3)c1C2 [Compound 339] | < 100 | – |
| COc1ccc2c(c1)-c1[nH]ncc1Cc1c(-c3cn(C)nc3C(F)(F)F)ncn1-2 [Compound 81] | – | > 1000 |
| CN1C(=O)Cn2c(C3=N[C@@H](c4ccccc4)CO3)cnc2-c2ccc(Cl)cc21 [Compound 30] | – | > 1000 |
| CC(C)n1cc2c(n1)-c1cc(Cl)ccc1-n1cnc(-c3cnn(Cc4ccccc4)c3)c1C2 [Compound 165] | 100 to 1000 | – |
| CCn1cc2c(n1)-c1cc(Cl)ccc1-n1cnc(-c3noc(CN(C)C)n3)c1C2 [Compound 349] | < 100 | – |
| CC(C)c1noc(-c2ncn3c2Cc2cn(C4CCOC4)nc2-c2cc(Cl)ccc2-3)n1 (stereo not shown) [Compound 199] | < 100 | – |
| COc1cccc(Cn2cc(-c3ncn4c3Cc3cn(C)nc3-c3cc(Cl)ccc3-4)cn2)n1 [Compound 336] | < 100 | – |

| Compound | Ki [nM] | Ki [1] [nM] |
| --- | --- | --- |
| COc1ccc(C#Cc2ncn3c2Cc2cn[nH]c2-c2cc(OC)ccc2-3)nc1 [Compound 53] | < 100 | – |
| COc1ccc2c(c1)-c1[nH]ncc1Cc1c(-c3cnn(C)c3)ncn1-2 [Compound 82] | 100 to 1000 | – |
| COc1ccc2c(c1)-c1[nH]ncc1Cc1c(-c3cc(C(F)(F)F)nn3C)ncn1-2 [Compound 79] | 100 to 1000 | – |
| COCc1noc(-c2ncn3c2Cc2cn(C)nc2-c2cc(Cl)ccc2-3)n1 [Compound 235] | < 100 | – |
| CC(C)c1noc(-c2cnc3n2CC(=O)N(C)c2cc(Cl)ccc2-3)n1 [Compound 31] | > 1000 | – |
| CC(C)(C)C#Cc1ncn2c1Cc1cn(Cc3ccccc3)nc1-c1cc(Cl)ccc1-2 [Compound 92] | < 100 | – |
| COc1ccc2c(c1)-c1nn(C)cc1Cc1c(-c3nc(CN4CCOCC4)co3)ncn1-2 [Compound 271] | < 100 | – |
| COc1ccc2c(c1)-c1nn(C)cc1Cc1c(-c3nnc(C4COCCO4)o3)ncn1-2 (stereo not shown) [Compound 325] | < 100 | – |
| CC(C)C[C@@H]1COC(c2ncn3c2Cc2cnoc2-c2cc(Cl)ccc2-3)=N1 [Compound 68] | – | > 1000 |
| COc1ccc2c(c1)-c1c(cnn1C)Cc1c(-c3noc(C(C)(C)OC)n3)ncn1-2 [Compound 186] | 100 to 1000 | – |
| COc1ccc2c(c1)-c1c(cnn1C)Cc1c(-c3nc(C)no3)ncn1-2 [Compound 18] | – | 100 to 1000 |
| COc1ccc2c(c1)-c1oncc1Cc1c(C3=N[C@H](c4ccccc4)CO3)ncn1-2 [Compound 49] | – | > 1000 |
| COc1ccc2c(c1)-c1nn(C)cc1Cc1c(-c3noc(C4(O)CC4)n3)ncn1-2 [Compound 363] | – | < 100 |
| CCOC(=O)c1cnc2n1Cc1nncn1-c1cc(Cl)ccc1-2 [Compound 56] | < 100 | – |
| COC1(c2nc(-c3ncn4c3Cc3cn(CC5CCCO5)nc3-c3cc(Cl)ccc3-4)no2)CC1 (stereo not shown) [Compound 322] | < 100 | – |
| COc1ccc2c(c1)-c1nn(Cc3cccc(F)c3)cc1Cc1c(-c3nc(C)no3)ncn1-2 [Compound 22] | < 100 | – |
| COc1ccc2c(c1)-c1nn(C)cc1Cc1c(-c3noc(C4CCOCC4)n3)ncn1-2 [Compound 324] | – | < 100 |
| Cn1cc2c(n1)-c1cc(Cl)ccc1-n1cnc(-c3nc(CN4CCCC4)co3)c1C2 [Compound 345] | < 100 | – |
